Test results reported in patent US11572337B2, “Antibacterial agents: arylalkylcarboxamido phloroglucinols” (Rutgers, The State University of New Jersey, priority 2018, dated 2023).
≈ marks a conversion by molar mass, not a printed value.

What was measured:
[1] = test system: Staphylococcus aureus ATCC 12600; assay: Inhibition of growth of Staphylococcus aureus (spiral gradient endpoint MIC assay); assay type: cell-based; conditions: ATCC12600, Mueller-Hinton II cation-adjusted agar, 16 h at 37° C., read-out: in vitro antibacterial activity S. aureus ATCC12600 MIC
Description: Minimum inhibitory concentrations (MICs for Staphylococcus aureus ATCC 12600 were quantified using spiral gradient endpoint assays, essentially as described [Wallace, A. and Corkill, J. (1989) Application of the spiral plating method to study antimicrobial action. J. Microbiol. Meths. 10, 303-310; Paton, J., Holt, A., and Bywater, M. (1990) Measurement of MICs of antibacterial agents by spiral gradient endpoint compared with conventional dilution methods. Int. I Exp. Clin. Chemother. 3, 31-38; Schalkowsky S. (1994) Measures of susceptibility from a spiral gradient of drug concentrations. Adv. Exp. Med. Biol. 349, 107-120]. Assays employed exponential-gradient plates containing 150 mm×4 mm Mueller-Hinton II cation-adjusted agar and 0.4-100 μg/ml of test salt. Plates were prepared using an Autoplate 4000 spiral plater (Spiral Biotech, Inc.). Saturated overnight cultures were swabbed radially onto plates, and plates were incubated for 16 h at 37° C. For each culture, the streak length was measured using a clear plastic template (Spiral Biotech, Inc.), the test-salt concentration at the streak endpoint was calculated using the program SGE (Spiral Biotech, Inc.), and the MIC was defined as the calculated test-salt concentration at the streak endpoint.

[2] = molecular target: E. coli RNA polymerase σ70 holoenzyme (Escherichia coli (strain K12), UniProt P0A8T7+P0A8V2); assay: Fluorescence-detected assay of inhibition of Escherichia coli RNA polymerase; assay type: biochemical; conditions: T4 N25 promoter DNA, RiboGreen fluorescence, read-out: RNAP-inhibitory activity E. coli RNAP IC50
Protocol: (§1) Fluorescence-detected RNA polymerase assays with E. coli RNA polymerase were performed by a modification of the procedure of Kuhlman et al., 2004 [Kuhlman, P., Duff, H. & Galant, A. (2004) A fluorescence-based assay for multisubunit DNA-dependent RNA polymerases. Anal. Biochem. 324, 183-190]. Reaction mixtures contained […]: […] test salt, 75 nM E. coli RNA polymerase σ^70 holoenzyme, 20 nM 384 bp DNA fragment containing the bacteriophage T4 N25 promoter, 100 μM ATP, 100 μM GTP, 100 μM UTP, 100 μM CTP, 50 mM Tris-HCl, pH 8.0, 100 mM KCl, 10 mM MgCl2, 1 mM DTT, 10 μg/ml bovine serum albumin, and 5.5% glycerol. Reaction components other than DNA and NTPs were pre-incubated for 10 min at 37° C. Reactions were carried out by addition of DNA and incubation for 5 min at 37° C., followed by addition of NTPs and incubation for 60 min at 37° C. DNA was removed by addition of 1 μl 5 mM CaCl2 and 2 U DNaseI (Ambion, Inc.), followed by incubation for 90 min at 37° C. RNA was quantified by addition of 100 μI RiboGreen RNA Quantitation Reagent (Invitrogen, Inc.; 1:500 dilution in Tris-HCl, pH 8.0, 1 mM EDTA), followed by incubation for 10 min at 25° C., followed by measurement of fluorescence intensity [excitation wavelength=485 nm and emission wavelength=535 nm; QuantaMaster QM1 spectrofluorometer (PTI, Inc.)]. IC50 is defined as the concentration of inhibitor resulting in 50% inhibition of RNA polymerase activity.

[3] = molecular target: S. aureus RNA polymerase core enzyme + S. aureus σA (Staphylococcus aureus (strain NCTC 8325 / PS 47), UniProt P47768+Q2G0N5); assay: Fluorescence-detected assay of inhibition of Staphylococcus aureus RNA polymerase; assay type: biochemical; conditions: T4 N25 promoter DNA, RiboGreen fluorescence, read-out: RNAP-inhibitory activity S. aureus RNAP IC50
Protocol: as §1
Fluorescence-detected RNA polymerase assays with S. aureus RNA polymerase were performed as in Example 2.1, using reaction mixtures containing (20 μl): 0-100 nM test salt, 75 nM S. aureus RNA polymerase core enzyme, 300 nM S. aureus σ^A, 20 nM 384 bp DNA fragment containing the bacteriophage T4 N25 promoter, 100 μM ATP, 100 μM GTP, 100 μM UTP, 100 μM CTP, 40 mM Tris-HCl, pH 8.0, 80 mM NaCl, 5 mM MgCl2, 2.5 mM DTT, and 12.7% glycerol. IC50 is defined as the concentration of inhibitor resulting in 50% inhibition of RNA polymerase activity.

SMILES: O=C(NCc1ccc(Cl)cc1)c1c(O)cc(O)cc1O [Compound 0MTK107, N-(4-chlorobenzyl)-2,4,6-trihydroxybenzamide]
- MIC [1]: > 40 µg/mL
- IC50 [2]: 400 nM
- IC50 [3]: 2000 nM

SMILES: O=C(NCCc1ccc(Cl)cc1)c1c(O)cc(O)cc1O [Compound 0MTK127, N-(4-chlorophenethyl)-2,4,6-trihydroxybenzamide]
- MIC [1]: 20 µg/mL (≈ 65 µM)
- IC50 [2]: 370 nM
- IC50 [3]: 1500 nM

SMILES: CN(CCc1ccc(Cl)cc1)C(=O)c1c(O)cc(O)cc1O [Compound 0MTK128, N-(4-chlorophenethyl)-2,4,6-trihydroxy-N-methylbenzamide]
- MIC [1]: > 20 µg/mL
- IC50 [2]: 970 nM
- IC50 [3]: > 100000 nM

SMILES: CC(C)(CNC(=O)c1c(O)cc(O)cc1O)c1ccc(Cl)cc1 [Compound 0MTK146, N-(2-(4-chlorophenyl)-2-methylpropyl)-2,4,6-trihydroxybenzamide]
- MIC [1]: 22 µg/mL (≈ 65.5 µM)
- IC50 [2]: 690 nM
- IC50 [3]: 2700 nM

SMILES: O=C(NCc1ccc(Oc2ccccc2)cc1)c1c(O)cc(O)cc1O [Compound 0MTK149, 2,4,6-trihydroxy-N-(4-phenoxybenzyl)benzamide]
- MIC [1]: 19 µg/mL (≈ 54.1 µM)
- IC50 [2]: 140 nM
- IC50 [3]: 1500 nM

SMILES: O=C(NCc1ccc(Oc2ccc(F)cc2)cc1)c1c(O)cc(O)cc1O [Compound 0MTK154, N-(4-(4-fluorophenoxy)benzyl)-2,4,6-trihydroxybenzamide]
- MIC [1]: 15 µg/mL (≈ 40.6 µM)
- IC50 [2]: 420 nM
- IC50 [3]: 3500 nM

SMILES: O=C(NCc1ccc(Oc2ccc(F)cc2)cc1C(F)(F)F)c1c(O)cc(O)cc1O [Compound 0MTK155, N-(4-(4-fluorophenoxy)-2-(trifluoromethyl)benzyl)-2,4,6-trihydroxybenzamide]
- MIC [1]: 8.1 µg/mL (≈ 18.5 µM)
- IC50 [2]: 790 nM
- IC50 [3]: 8100 nM

SMILES: O=C(NCCc1ccc(Oc2ccc(F)cc2)cc1)c1c(O)cc(O)cc1O [Compound 0MTK156, N-(4-(4-fluorophenoxy)phenethyl)-2,4,6-trihydroxybenzamide]
- MIC [1]: 8.3 µg/mL (≈ 21.6 µM)
- IC50 [2]: 820 nM
- IC50 [3]: 5500 nM

SMILES: O=C(NCc1ccc(Oc2ccccc2)cc1C(F)(F)F)c1c(O)cc(O)cc1O [Compound 0MTK158, 2,4,6-trihydroxy-N-(4-phenoxy-2-(trifluoromethyl)benzyl)benzamide]
- MIC [1]: 5.4 µg/mL (≈ 12.9 µM)
- IC50 [2]: 220 nM
- IC50 [3]: 1800 nM

SMILES: O=C(NCc1ccc(Oc2ccc(F)cc2)c(Cl)c1)c1c(O)cc(O)cc1O [Compound 0MTK174, N-(3-chloro-4-(4-fluorophenoxy)benzyl)-2,4,6-trihydroxybenzamide]
- MIC [1]: 8.6 µg/mL (≈ 21.3 µM)
- IC50 [2]: 410 nM
- IC50 [3]: 14000 nM

SMILES: O=C(NCc1ccc(Oc2ccc(F)cc2)c(F)c1)c1c(O)cc(O)cc1O [Compound 0MTK175, N-(3-fluoro-4-(4-fluorophenoxy)benzyl)-2,4,6-trihydroxybenzamide]
- MIC [1]: 8.6 µg/mL (≈ 22.2 µM)
- IC50 [2]: 450 nM
- IC50 [3]: 7000 nM

SMILES: Cc1cc(Oc2ccc(F)cc2)ccc1CNC(=O)c1c(O)cc(O)cc1O [Compound 0MTK176, N-(4-(4-fluorophenoxy)-2-methylbenzyl)-2,4,6-trihydroxybenzamide]
- MIC [1]: 5.3 µg/mL (≈ 13.8 µM)
- IC50 [2]: 390 nM
- IC50 [3]: 12000 nM

SMILES: COc1cc(Oc2ccc(F)cc2)ccc1CNC(=O)c1c(O)cc(O)cc1O [Compound 0MTK178, N-(4-(4-fluorophenoxy)-2-methoxybenzyl)-2,4,6-trihydroxybenzamide]
- MIC [1]: 7.8 µg/mL (≈ 19.5 µM)
- IC50 [2]: 610 nM
- IC50 [3]: 18000 nM

SMILES: O=C(NCCc1ccc(Oc2cc(Cl)cc(Cl)c2)cc1)c1c(O)cc(O)cc1O [Compound 0MTK180, N-(4-(3,5-dichlorophenoxy)phenethyl)-2,4,6-trihydroxybenzamide]
- MIC [1]: 1.8 µg/mL (≈ 4.14 µM)
- IC50 [2]: 830 nM
- IC50 [3]: 6600 nM

SMILES: O=C(NCc1ccc(Oc2ccc(F)cc2)cc1Cl)c1c(O)cc(O)cc1O [Compound 0MTK181, N-(2-chloro-4-(4-fluorophenoxy)benzyl)-2,4,6-trihydroxybenzamide]
- MIC [1]: 6.9 µg/mL (≈ 17.1 µM)
- IC50 [2]: 1400 nM
- IC50 [3]: > 60000 nM

SMILES: O=C(NCCc1ccc(Oc2ccc(Cl)cc2)cc1)c1c(O)cc(O)cc1O [Compound 0MTK183, N-(4-(4-chlorophenoxy)phenethyl)-2,4,6-trihydroxybenzamide]
- MIC [1]: 6.1 µg/mL (≈ 15.3 µM)
- IC50 [2]: 1700 nM
- IC50 [3]: 14000 nM

SMILES: O=C(NCCCc1ccc(Cl)cc1)c1c(O)cc(O)cc1O [Compound 0MTK204, N-(3-(4-chlorophenyl)propyl)-2,4,6-trihydroxybenzamide]
- MIC [1]: 27 µg/mL (≈ 83.9 µM)
- IC50 [2]: 7000 nM
- IC50 [3]: 8000 nM

SMILES: O=C(NCCc1ccc(C(F)(F)F)cc1)c1c(O)cc(O)cc1O [Compound 0MTK207, 2,4,6-trihydroxy-N-(4-(trifluoromethyl)phenethyl)benzamide]
- MIC [1]: 19 µg/mL (≈ 55.7 µM)
- IC50 [2]: 7400 nM
- IC50 [3]: 13000 nM

SMILES: COc1ccc(Oc2ccc(CCNC(=O)c3c(O)cc(O)cc3O)cc2)cc1 [Compound 0MTK260, 2,4,6-trihydroxy-N-(4-(4-methoxyphenoxy)phenethyl)benzamide]
- IC50 [2]: 780 nM
- IC50 [3]: 6200 nM

SMILES: O=C(NCCc1ccc(Oc2ccc(N3CCOCC3)cc2)cc1)c1c(O)cc(O)cc1O [Compound 0MTK261, 2,4,6-trihydroxy-N-(4-(4-morpholinophenoxy)phenethyl)benzamide]
- IC50 [2]: 1500 nM
- IC50 [3]: 7500 nM

SMILES: O=C(NCCc1ccc(Oc2cncnc2)cc1)c1c(O)cc(O)cc1O [Compound 0MTK262, 2,4,6-trihydroxy-N-(4-(pyrimidin-5-yloxy)phenethyl)benzamide]
- IC50 [2]: 1500 nM
- IC50 [3]: 7400 nM

SMILES: O=C(NCCc1ccc(Oc2cccc(N3CCOCC3)c2)cc1)c1c(O)cc(O)cc1O [Compound 0MTK263, 2,4,6-trihydroxy-N-(4-(3-morpholinophenoxy)phenethyl)benzamide]
- IC50 [2]: 1300 nM
- IC50 [3]: 7100 nM

SMILES: O=C(NCCc1ccc(Oc2cccnc2)cc1)c1c(O)cc(O)cc1O [Compound 0MTK264, 2,4,6-trihydroxy-N-(4-(pyridin-3-yloxy)phenethyl)benzamide]
- IC50 [2]: 820 nM
- IC50 [3]: 3800 nM

SMILES: O=C(NCCc1ccc(Oc2ccncc2)cc1)c1c(O)cc(O)cc1O [Compound 0MTK265, 2,4,6-trihydroxy-N-(4-(pyridin-4-yloxy)phenethyl)benzamide]
- IC50 [2]: 1300 nM
- IC50 [3]: 6400 nM

SMILES: O=C(NCCc1ccc(Oc2ccc(-c3ccncc3)cc2)cc1)c1c(O)cc(O)cc1O [Compound 0MTK266, 2,4,6-trihydroxy-N-(4-(4-(pyridin-4-yl)phenoxy)phenethyl)benzamide]
- IC50 [2]: 1200 nM
- IC50 [3]: 5100 nM

SMILES: O=C(NCCc1ccc(Oc2ccc(-c3cccnc3)cc2)cc1)c1c(O)cc(O)cc1O [Compound 0MTK267, 2,4,6-trihydroxy-N-(4-(4-(pyridin-3-yl)phenoxy)phenethyl)benzamide]
- IC50 [2]: 300 nM
- IC50 [3]: 1700 nM

SMILES: O=C(NC1CC1)c1cccc(Oc2ccc(CCNC(=O)c3c(O)cc(O)cc3O)cc2)c1 [Compound 0MTK268, N-(4-(3-(cyclopropylcarbamoyl)phenoxy)phenethyl)-2,4,6-trihydroxybenzamide]
- IC50 [2]: 800 nM
- IC50 [3]: 2900 nM

SMILES: O=C(NCCc1ccc(Oc2cccc(-c3ccncc3)c2)cc1)c1c(O)cc(O)cc1O [Compound 0MTK269, 2,4,6-trihydroxy-N-(4-(3-(pyridin-4-yl)phenoxy)phenethyl)benzamide]
- IC50 [2]: 700 nM
- IC50 [3]: 3000 nM
